How the values were obtained:
[1] = target: Cathepsin S (Homo sapiens, UniProt P25774); assay: Inhibition of human cathepsin S
[2] = target: T1, Cathepsin K (Homo sapiens, UniProt P43235); assay: Inhibition of human cathepsin K
T1 sequence (P43235 whole entry): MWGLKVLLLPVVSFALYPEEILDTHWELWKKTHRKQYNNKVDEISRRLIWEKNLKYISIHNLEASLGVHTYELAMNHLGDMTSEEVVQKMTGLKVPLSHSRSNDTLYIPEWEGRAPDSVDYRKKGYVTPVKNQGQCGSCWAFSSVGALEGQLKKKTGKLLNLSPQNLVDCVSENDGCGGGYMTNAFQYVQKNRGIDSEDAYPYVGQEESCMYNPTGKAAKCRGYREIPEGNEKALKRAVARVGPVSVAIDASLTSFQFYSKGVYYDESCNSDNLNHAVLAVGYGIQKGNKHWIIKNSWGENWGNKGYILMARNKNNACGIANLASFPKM

[3] = target: Cathepsin B (Homo sapiens, UniProt P07858); assay: Inhibition of human cathepsin B
[4] = target: Procathepsin L (Homo sapiens, UniProt P07711); assay: Inhibition of human cathepsin L
[5] = target: Cathepsin S (Mus musculus, UniProt O70370); assay: Inhibition of mouse recombinant cathepsin S
[6] = target: T2, Cathepsin K (Mus musculus, UniProt P55097); assay: Inhibition of mouse recombinant cathepsin K
T2 sequence (P55097 whole entry): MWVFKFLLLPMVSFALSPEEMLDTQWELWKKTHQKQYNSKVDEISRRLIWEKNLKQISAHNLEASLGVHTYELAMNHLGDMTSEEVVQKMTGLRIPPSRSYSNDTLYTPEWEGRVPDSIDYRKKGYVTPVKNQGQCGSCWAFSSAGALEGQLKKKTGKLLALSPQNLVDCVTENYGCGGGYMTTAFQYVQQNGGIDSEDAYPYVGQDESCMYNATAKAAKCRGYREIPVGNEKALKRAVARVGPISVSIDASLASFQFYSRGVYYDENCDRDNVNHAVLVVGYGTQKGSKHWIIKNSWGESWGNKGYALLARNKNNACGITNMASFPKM

[7] = target: Cathepsin B (Mus musculus, UniProt P10605); assay: Inhibition of mouse recombinant cathepsin B
[8] = target: Cathepsin S (Rattus norvegicus, UniProt Q02765); assay: Inhibition of rat spleen cathepsin S; type: tissue-based
[9] = target: Cathepsin B (Rattus norvegicus, UniProt P00787); assay: Inhibition of rat liver lysosomal cathepsin B
[10] = target: T3, Procathepsin L (Mus musculus, UniProt P06797); assay: Inhibition of mouse recombinant cathepsin L
T3 sequence (P06797 whole entry): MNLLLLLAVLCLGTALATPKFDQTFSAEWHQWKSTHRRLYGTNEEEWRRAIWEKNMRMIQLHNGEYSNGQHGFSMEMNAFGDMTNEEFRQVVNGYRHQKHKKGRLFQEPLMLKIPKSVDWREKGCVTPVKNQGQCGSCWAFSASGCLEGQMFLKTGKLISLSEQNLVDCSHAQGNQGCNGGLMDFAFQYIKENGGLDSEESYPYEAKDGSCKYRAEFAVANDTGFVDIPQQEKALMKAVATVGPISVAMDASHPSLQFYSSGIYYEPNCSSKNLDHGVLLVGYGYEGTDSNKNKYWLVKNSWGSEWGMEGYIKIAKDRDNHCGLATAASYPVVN

[11] = target: T4, Procathepsin L (Rattus norvegicus, UniProt P07154); assay: Inhibition of rat liver lysosomal cathepsin L
T4 sequence (P07154 whole entry): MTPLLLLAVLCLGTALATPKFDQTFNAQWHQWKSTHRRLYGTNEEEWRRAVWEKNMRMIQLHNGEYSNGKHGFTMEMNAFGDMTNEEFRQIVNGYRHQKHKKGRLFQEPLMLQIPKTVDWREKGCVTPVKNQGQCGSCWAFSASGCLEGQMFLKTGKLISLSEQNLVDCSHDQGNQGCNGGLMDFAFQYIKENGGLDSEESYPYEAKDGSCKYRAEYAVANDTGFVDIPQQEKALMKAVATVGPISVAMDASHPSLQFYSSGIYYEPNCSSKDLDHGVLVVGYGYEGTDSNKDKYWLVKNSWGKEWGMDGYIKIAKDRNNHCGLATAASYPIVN

[12] = Bioavailability in Sprague-Dawley rat; type: ADME, organism-based; conditions: in vivo
[13] = Cmax in Sprague-Dawley rat; type: ADME, organism-based; conditions: in vivo
[14] = Half life in Sprague-Dawley rat; type: ADME, organism-based; conditions: in vivo
[15] = test system: Hepatocyte; assay: Metabolic stability in rat hepatocytes after 2 hrs; type: ADME, cell-based
[16] = Inhibition of antigen presentation in mouse B cells; type: functional, cell-based

Cathepsin B (Mus musculus, UniProt P10605), sequence (P10605 whole entry): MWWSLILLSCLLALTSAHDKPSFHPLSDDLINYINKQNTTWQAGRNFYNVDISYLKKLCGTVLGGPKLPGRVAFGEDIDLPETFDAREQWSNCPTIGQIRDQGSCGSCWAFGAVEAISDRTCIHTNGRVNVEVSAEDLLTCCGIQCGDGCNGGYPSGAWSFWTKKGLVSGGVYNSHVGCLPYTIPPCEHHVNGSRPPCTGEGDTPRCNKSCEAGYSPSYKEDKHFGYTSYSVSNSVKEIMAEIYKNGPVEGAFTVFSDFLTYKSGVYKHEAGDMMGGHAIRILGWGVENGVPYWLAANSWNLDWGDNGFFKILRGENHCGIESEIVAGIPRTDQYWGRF
Cathepsin S (Mus musculus, UniProt O70370), sequence (O70370 whole entry): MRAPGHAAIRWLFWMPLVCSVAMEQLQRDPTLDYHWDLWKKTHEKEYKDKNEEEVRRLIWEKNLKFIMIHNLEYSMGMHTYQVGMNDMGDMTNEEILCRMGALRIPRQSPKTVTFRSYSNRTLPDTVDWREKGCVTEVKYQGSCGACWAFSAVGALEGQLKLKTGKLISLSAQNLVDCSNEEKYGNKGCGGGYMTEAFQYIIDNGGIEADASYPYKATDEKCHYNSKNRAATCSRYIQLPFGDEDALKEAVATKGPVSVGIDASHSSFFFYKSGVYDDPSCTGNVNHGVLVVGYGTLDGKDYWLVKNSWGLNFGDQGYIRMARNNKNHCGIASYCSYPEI
Cathepsin B (Rattus norvegicus, UniProt P00787), sequence (P00787 whole entry): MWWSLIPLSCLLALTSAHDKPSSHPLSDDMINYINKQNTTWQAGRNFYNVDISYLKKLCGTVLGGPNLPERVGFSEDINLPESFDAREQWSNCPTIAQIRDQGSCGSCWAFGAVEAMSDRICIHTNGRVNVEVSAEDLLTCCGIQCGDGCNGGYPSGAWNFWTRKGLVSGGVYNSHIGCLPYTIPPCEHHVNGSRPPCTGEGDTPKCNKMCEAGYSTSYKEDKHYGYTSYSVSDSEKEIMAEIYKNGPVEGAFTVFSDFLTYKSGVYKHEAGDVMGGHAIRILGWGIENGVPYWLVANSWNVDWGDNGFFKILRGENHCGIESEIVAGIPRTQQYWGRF
Procathepsin L (Homo sapiens, UniProt P07711), sequence (P07711 whole entry): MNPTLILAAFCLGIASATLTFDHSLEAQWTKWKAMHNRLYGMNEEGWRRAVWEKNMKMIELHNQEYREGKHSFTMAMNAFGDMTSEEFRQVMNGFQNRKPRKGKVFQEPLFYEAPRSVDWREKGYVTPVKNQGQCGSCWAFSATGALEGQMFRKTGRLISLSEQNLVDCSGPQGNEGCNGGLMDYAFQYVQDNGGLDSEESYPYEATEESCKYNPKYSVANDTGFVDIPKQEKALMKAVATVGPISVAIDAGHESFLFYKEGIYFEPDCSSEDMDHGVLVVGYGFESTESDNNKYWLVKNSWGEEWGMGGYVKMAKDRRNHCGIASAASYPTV
Cathepsin S (Homo sapiens, UniProt P25774), sequence (P25774 whole entry): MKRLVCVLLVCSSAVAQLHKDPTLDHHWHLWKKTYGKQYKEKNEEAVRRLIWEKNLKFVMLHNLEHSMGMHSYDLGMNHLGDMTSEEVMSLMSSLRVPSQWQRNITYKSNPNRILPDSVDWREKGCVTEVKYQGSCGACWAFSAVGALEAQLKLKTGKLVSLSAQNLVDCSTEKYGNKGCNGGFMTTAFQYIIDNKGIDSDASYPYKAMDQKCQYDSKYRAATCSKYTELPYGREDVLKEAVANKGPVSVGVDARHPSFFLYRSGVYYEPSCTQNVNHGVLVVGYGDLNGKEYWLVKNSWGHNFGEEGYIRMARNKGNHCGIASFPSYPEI
Cathepsin S (Rattus norvegicus, UniProt Q02765), sequence (Q02765 whole entry): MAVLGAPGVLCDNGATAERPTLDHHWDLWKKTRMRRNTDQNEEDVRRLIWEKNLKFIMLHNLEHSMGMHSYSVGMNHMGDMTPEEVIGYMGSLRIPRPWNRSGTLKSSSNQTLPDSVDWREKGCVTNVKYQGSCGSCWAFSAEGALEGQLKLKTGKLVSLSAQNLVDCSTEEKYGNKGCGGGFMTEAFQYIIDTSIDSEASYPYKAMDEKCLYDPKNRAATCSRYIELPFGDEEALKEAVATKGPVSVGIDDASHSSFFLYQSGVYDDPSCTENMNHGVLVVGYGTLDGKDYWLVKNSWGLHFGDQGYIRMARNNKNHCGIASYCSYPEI

Row | SMILES | IC50 [1] | IC50 [2] | IC50 [3] | IC50 [4] | IC50 [5] | IC50 [6] | IC50 [7] | IC50 [8] | IC50 [9] | IC50 [10] | IC50 [11] | bioavailability [12] | Cmax [13] | half-life [14] | Stability [15] | IC50 [16]
1 | CSC[C@H](N[C@@H](c1ccc(Br)cc1)C(F)(F)F)C(=O)NC1(C#N)CC1 | 0.08 µM | 0.005 µM | 0.417 µM | 0.456 µM |  |  |  |  |  |  |  |  |  |  |  | 
2 | N#CC1(NC(=O)[C@H](CS(=O)(=O)c2ccc(Br)cc2)N[C@@H](c2ccccc2)C(F)(F)F)CC1 | 0.0003 µM | 0.29 µM | 3.45 µM | 0.015 µM | 0.0002 µM | 1.32 µM | 1.75 µM | 0.066 µM | 1.81 µM | 0.039 µM | 0.072 µM |  |  |  |  | 
3 | CS(=O)(=O)C[C@H](N[C@@H](c1ccc(Br)cc1)C(F)(F)F)C(=O)NC1(C#N)CC1 | 0.011 µM | 0.031 µM |  |  | 0.0016 µM | 1.03 µM | 0.069 µM | 1.05 µM | 0.066 µM | 2.22 µM | 1.28 µM | 40% | 3300 nM | 11 h | Stable | 
4 | N#CC1(NC(=O)[C@H](CS(=O)(=O)CC2CC2)N[C@@H](c2ccccc2)C(F)(F)F)CC1 | 0.0006 µM | 0.555 µM | 0.287 µM | 0.068 µM |  |  |  |  |  |  |  |  |  |  |  | 
5 | CC(C)(c1ccc(F)cc1)S(=O)(=O)C[C@H](N[C@@H](c1ccc(F)cc1)C(F)(F)F)C(=O)NC1(C#N)CC1 | 0.627 µM | > 10 µM | > 10 µM | > 10 µM |  |  |  |  |  |  |  |  |  |  |  | 
6 | CC(C)C[C@H](N[C@@H](c1ccc(-c2ccc(S(C)(=O)=O)cc2)cc1)C(F)(F)F)C(=O)NC1(C#N)CC1 | 0.265 µM | 0.0003 µM | 7.74 µM | 0.456 µM |  |  |  |  |  |  |  |  |  |  |  | 
7 | CC(C)C[C@@H](NC(=O)N1CCOCC1)C(=O)N[C@@H](/C=C/S(=O)(=O)c1ccccc1)CCc1ccccc1 | 0.0012 µM | 0.0062 µM | 4.5 µM |  | 0.0005 µM | 0.388 µM | 1.28 µM | 0.0017 µM | 0.735 µM |  | 0.0041 µM |  |  |  |  | 0.0012 µM
8 | N#CC1(NC(=O)[C@H](CS(=O)(=O)c2nccs2)N[C@@H](c2ccccc2)C(F)(F)F)CC1 | 0.005 µM | 0.376 µM | 3.61 µM | 0.181 µM |  |  |  |  |  |  |  |  |  |  |  | 
9 | CS(=O)(=O)C[C@H](N[C@@H](c1ccc(-c2ccc(F)cc2)cc1)C(F)(F)F)C(=O)NC1(C#N)CC1 | 0.01 µM | 0.0053 µM | 0.17 µM | > 10 µM |  |  |  |  |  |  |  |  |  |  |  | 

More lines, now with the values ahead:

Row | IC50 [1] | IC50 [2] | IC50 [3] | IC50 [4] | IC50 [5] | IC50 [6] | IC50 [7] | IC50 [8] | IC50 [9] | IC50 [10] | IC50 [11] | bioavailability [12] | Cmax [13] | half-life [14] | Stability [15] | IC50 [16] | SMILES
10 | 0.0007 µM | > 10 µM | > 10 µM | 0.249 µM |  |  |  |  |  |  |  |  |  |  |  |  | N#CC1(NC(=O)[C@H](CS(=O)(=O)Cc2c(F)cccc2F)N[C@@H](c2ccc(F)cc2)C(F)(F)F)CC1
11 | 0.0003 µM | > 10 µM | 1.32 µM | 0.121 µM | 0.0008 µM | > 10 µM | 0.384 µM | 0.021 µM | 0.384 µM | 0.662 µM | 0.399 µM | 3% | 46 nM | 1.2 h |  |  | N#CC1(NC(=O)[C@H](CS(=O)(=O)Cc2cccc(F)c2F)N[C@@H](c2ccc(F)cc2)C(F)(F)F)CC1
12 | 0.0025 µM | 0.141 µM | 1.98 µM | 1.03 µM |  |  |  |  |  |  |  |  |  |  |  |  | CS(=O)(=O)C[C@H](N[C@@H](c1ccccc1)C(F)(F)F)C(=O)NC1(C#N)CC1
13 | 0.0003 µM | > 10 µM | 1.84 µM | 0.105 µM |  |  |  |  |  |  |  |  |  |  |  |  | N#CC1(NC(=O)[C@H](CS(=O)(=O)Cc2cccc(F)c2F)N[C@@H](c2ccccc2)C(F)(F)F)CC1

From ChEMBL document CHEMBL1140679, “The identification of potent, selective, and bioavailable cathepsin S inhibitors” (Bioorg Med Chem Lett, 2007)
